Results published in article PMC4109017 (Nature Communications, 2014).

Assays:
FALDH (K463X) = FALDH (K463X) (Homo sapiens, UniProt P51648); test: fluorometric NADH formation, Michaelis-Menten fit; assay type: biochemical; details: 1 mM NAD, 25 mM sodium pyrophosphate pH 8.0, 0.1% Triton X-100, 37 °C
[1] = target: FALDH Q445X (without gatekeeper helix) (Homo sapiens, UniProt P51648); test: fluorometric NADH formation, Michaelis-Menten fit; assay type: biochemical; details: 1 mM NAD, 25 mM sodium pyrophosphate pH 8.0, 0.1% Triton X-100, 37 °C
Chain of FALDH Q445X (without gatekeeper helix) (P51648 1-444): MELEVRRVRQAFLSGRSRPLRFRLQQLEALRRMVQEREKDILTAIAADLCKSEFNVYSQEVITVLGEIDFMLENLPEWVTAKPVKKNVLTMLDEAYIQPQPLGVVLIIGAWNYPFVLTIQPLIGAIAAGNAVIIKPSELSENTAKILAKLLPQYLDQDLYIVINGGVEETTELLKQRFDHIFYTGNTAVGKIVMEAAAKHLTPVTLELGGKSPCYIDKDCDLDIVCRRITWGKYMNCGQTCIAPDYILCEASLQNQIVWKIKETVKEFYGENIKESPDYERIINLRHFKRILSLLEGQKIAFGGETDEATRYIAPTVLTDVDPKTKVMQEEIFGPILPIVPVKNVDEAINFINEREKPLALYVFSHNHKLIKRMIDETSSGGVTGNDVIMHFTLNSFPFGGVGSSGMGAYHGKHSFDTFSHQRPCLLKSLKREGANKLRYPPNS

Chain of FALDH (K463X) (P51648 1-462): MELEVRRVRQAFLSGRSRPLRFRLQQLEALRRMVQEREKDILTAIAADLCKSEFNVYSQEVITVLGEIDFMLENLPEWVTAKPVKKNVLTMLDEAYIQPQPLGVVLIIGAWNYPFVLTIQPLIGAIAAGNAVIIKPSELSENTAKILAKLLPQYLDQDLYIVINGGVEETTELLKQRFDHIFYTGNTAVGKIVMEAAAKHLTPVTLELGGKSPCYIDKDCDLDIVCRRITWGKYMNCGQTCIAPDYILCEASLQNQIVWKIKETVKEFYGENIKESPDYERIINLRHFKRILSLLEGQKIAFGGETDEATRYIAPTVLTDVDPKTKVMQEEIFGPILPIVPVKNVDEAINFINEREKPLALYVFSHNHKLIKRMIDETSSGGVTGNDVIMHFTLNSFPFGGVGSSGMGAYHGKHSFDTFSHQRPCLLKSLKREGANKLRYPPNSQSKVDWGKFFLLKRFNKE

Row | Compound | Vmax/KM (FALDH (K463X)) | Vmax/KM [1]
1 | CCCCCCCCCCCC=O [dodecanal] | metabolize octanal, dodecanal and hexadecanal | longer fatty aldehydes docecanal (C12) and hexadecanal (C16) were used as substrates
2 | CCCCCCCCCCCCCCCC=O [hexadecanal] | metabolize octanal, dodecanal and hexadecanal | 
